Test results taken from ChEMBL document CHEMBL4152249, “Alkoxyphenylthiazoles with broad-spectrum activity against multidrug-resistant gram-positive bacterial pathogens” (Eur J Med Chem, 2018).
In brackets after ≈: the same amount, converted by molar mass.

Assays:
[1] = tested on: Staphylococcus aureus; test: Antibacterial activity against methicillin-resistant Staphylococcus aureus 2658 RCMB after 20 hrs by broth microdilution assay; type: functional
[2] = tested on: Staphylococcus aureus; test: Antibacterial activity against Staphylococcus aureus after 20 hrs by broth microdilution assay; type: functional
[3] = tested on: Staphylococcus aureus; test: Bactericidal activity against methicillin-sensitive Staphylococcus aureus NRS107 incubated for 20 hrs followed by re-plating on tryptic soy agar plates at 37 degC for 18 hrs by broth microdilution assay; type: functional
[4] = tested on: Staphylococcus aureus; test: Antibacterial activity against methicillin-resistant Staphylococcus aureus after 20 hrs by broth microdilution assay; type: functional
[5] = tested on: Staphylococcus aureus; test: Bactericidal activity against linezolid-resistant Staphylococcus aureus NRS119 incubated for 20 hrs followed by re-plating on tryptic soy agar plates at 37 degC for 18 hrs by broth microdilution assay; type: functional
[6] = tested on: Staphylococcus aureus; test: Bactericidal activity against Staphylococcus aureus USA400 NRS123 incubated for 20 hrs followed by re-plating on tryptic soy agar plates at 37 degC for 18 hrs by broth microdilution assay; type: functional
[7] = tested on: Staphylococcus aureus; test: Bactericidal activity against Staphylococcus aureus USA300 NRS384 incubated for 20 hrs followed by re-plating on tryptic soy agar plates at 37 degC for 18 hrs by broth microdilution assay; type: functional
[8] = tested on: Staphylococcus aureus; test: Antibacterial activity against methicillin-resistant Staphylococcus aureus NRS385 after 20 hrs by broth microdilution assay; type: functional; conditions: NRS385, 20 h
[9] = tested on: Staphylococcus aureus; test: Bactericidal activity against methicillin-resistant Staphylococcus aureus NRS385 incubated for 20 hrs followed by re-plating on tryptic soy agar plates at 37 degC for 18 hrs by broth microdilution assay; type: functional
[10] = tested on: Staphylococcus aureus; test: Antibacterial activity against methicillin-resistant Staphylococcus aureus NRS386 after 20 hrs by broth microdilution assay; type: functional; conditions: NRS386, 20 h
[11] = tested on: Staphylococcus aureus; test: Bactericidal activity against methicillin-resistant Staphylococcus aureus NRS386 incubated for 20 hrs followed by re-plating on tryptic soy agar plates at 37 degC for 18 hrs by broth microdilution assay; type: functional
[12] = tested on: Staphylococcus aureus; test: Antibacterial activity against vancomycin-resistant Staphylococcus aureus VRSA10 after 20 hrs by broth microdilution assay; type: functional; conditions: VRSA10, 20 h
[13] = tested on: Staphylococcus aureus; test: Bactericidal activity against vancomycin-resistant Staphylococcus aureus VRSA10 incubated for 20 hrs followed by re-plating on tryptic soy agar plates at 37 degC for 18 hrs by broth microdilution assay; type: functional
[14] = tested on: Staphylococcus aureus; test: Antibacterial activity against vancomycin-resistant Staphylococcus aureus VRSA12 after 20 hrs by broth microdilution assay; type: functional; conditions: VRSA12, 20 h
[15] = tested on: Staphylococcus aureus; test: Bactericidal activity against vancomycin-resistant Staphylococcus aureus VRSA12 incubated for 20 hrs followed by re-plating on tryptic soy agar plates at 37 degC for 18 hrs by broth microdilution assay; type: functional
[16] = tested on: Staphylococcus epidermidis; test: Antibacterial activity against methicillin-resistant Staphylococcus epidermidis NRS101 after 20 hrs by broth microdilution assay; type: functional; conditions: NRS101, 20 h
[17] = tested on: Staphylococcus epidermidis; test: Bactericidal activity against methicillin-resistant Staphylococcus epidermidis NRS101 incubated for 20 hrs followed by re-plating on tryptic soy agar plates at 37 degC for 18 hrs by broth microdilution assay; type: functional
[18] = tested on: Enterococcus faecalis; test: Antibacterial activity against vancomycin-resistant Enterococcus faecalis ATCC 51299 after 20 hrs by broth microdilution assay; type: functional; conditions: ATCC 51299, 20 h
[19] = tested on: Enterococcus faecalis; test: Bactericidal activity against vancomycin-resistant Enterococcus faecalis ATCC 51299 incubated for 20 hrs followed by re-plating on tryptic soy agar plates at 37 degC for 18 hrs by broth microdilution assay; type: functional
[20] = tested on: Enterococcus faecium; test: Antibacterial activity against vancomycin-resistant Enterococcus faecium ATCC 700221 after 20 hrs by broth microdilution assay; type: functional; conditions: ATCC 700221, 20 h
[21] = tested on: Enterococcus faecium; test: Bactericidal activity against vancomycin-resistant Enterococcus faecium ATCC 700221 incubated for 20 hrs followed by re-plating on tryptic soy agar plates at 37 degC for 18 hrs by broth microdilution assay; type: functional
[22] = tested on: Listeria monocytogenes; test: Antibacterial activity against Listeria monocytogenes ATCC 19111 after 20 hrs by broth microdilution assay; type: functional; conditions: ATCC 19111, 20 h
[23] = tested on: Listeria monocytogenes; test: Bactericidal activity against Listeria monocytogenes ATCC 19111 incubated for 20 hrs followed by re-plating on tryptic soy agar plates at 37 degC for 18 hrs by broth microdilution assay; type: functional
[24] = tested on: Streptococcus pneumoniae; test: Antibacterial activity against cephalosporin-resistant Streptococcus pneumoniae ATCC 51916 after 20 hrs by broth microdilution assay; type: functional; conditions: ATCC 51916, 20 h
[25] = tested on: Streptococcus pneumoniae; test: Bactericidal activity against cephalosporin-resistant Streptococcus pneumoniae ATCC 51916 incubated for 20 hrs followed by re-plating on tryptic soy agar plates at 37 degC for 18 hrs by broth microdilution assay; type: functional
[26] = tested on: Streptococcus pneumoniae; test: Antibacterial activity against methicillin-resistant Streptococcus pneumoniae ATCC 700677 after 20 hrs by broth microdilution assay; type: functional; conditions: ATCC 700677, 20 h
[27] = tested on: Streptococcus pneumoniae; test: Bactericidal activity against methicillin-resistant Streptococcus pneumoniae ATCC 700677 incubated for 20 hrs followed by re-plating on tryptic soy agar plates at 37 degC for 18 hrs by broth microdilution assay; type: functional
[28] = tested on: Enterococcus faecalis; test: Ratio of MBC to MIC for vancomycin-resistant Enterococcus faecalis ATCC 51299; type: functional
[29] = tested on: Listeria monocytogenes; test: Ratio of MBC to MIC for Listeria monocytogenes ATCC 19111; type: functional
[30] = tested on: Staphylococcus aureus; test: Bactericidal activity against Staphylococcus aureus USA400 assessed as reduction in colony forming unit at 6 times MIC treated for 2 hrs followed by re-plating on tryptic soy agar plates at 37 degC for 18 to 20 hrs by broth microdilution assay; type: functional; design: scale not given: the % may be the effect or the level left
[31] = tested on: Staphylococcus aureus; test: Bactericidal activity against Staphylococcus aureus USA400 assessed as reduction in colony forming unit at 3 times MIC treated for 4 hrs followed by re-plating on tryptic soy agar plates at 37 degC for 18 to 20 hrs by broth microdilution assay; type: functional; design: scale not given: the % may be the effect or the level left
[32] = tested on: Staphylococcus aureus; test: Antibacterial activity against methicillin-resistant Staphylococcus aureus USA400 NRS123 assessed as ratio of MIC after and before 14 passages over 2 weeks by broth microdilution method; type: functional
[33] = tested on: Caco-2; test: Cytotoxicity against human Caco2 cells assessed as effect on cell viability up to 64 ug/ml after 2 hrs by MTS assay; type: cell-based; conditions: caco-2, 2 h
[34] = Selectivity index, ratio of compound effect for human Caco2 cells at maximum non-toxic concentration concentration to MIC for methicillin-resistant Staphylococcus epidermidis NRS101; type: toxicity; conditions: Caco-2 cells, read-out: Selectivity Index
[35] = Selectivity index, ratio of compound effect for human Caco2 cells at maximum non-toxic concentration concentration to MIC for vancomycin-resistant Enterococcus faecalis ATCC 51299; type: toxicity; conditions: Caco-2 cells, read-out: Selectivity Index
[36] = Selectivity index, ratio of compound effect for human Caco2 cells at maximum non-toxic concentration concentration to MIC for vancomycin-resistant Enterococcus faecium ATCC 700221; type: toxicity; conditions: Caco-2 cells, read-out: Selectivity Index
[37] = Selectivity index, ratio of compound effect for human Caco2 cells at maximum non-toxic concentration concentration to MIC for Listeria monocytogenes ATCC 19111; type: toxicity; conditions: Caco-2 cells, read-out: Selectivity Index
[38] = Selectivity index, ratio of compound effect for human Caco2 cells at maximum non-toxic concentration concentration to MIC for cephalosporin-resistant Streptococcus pneumoniae ATCC 51916; type: toxicity; conditions: Caco-2 cells, read-out: Selectivity Index
[39] = Selectivity index, ratio of compound effect for human Caco2 cells at maximum non-toxic concentration concentration to MIC for methicillin-resistant Streptococcus pneumoniae ATCC 700677; type: toxicity; conditions: Caco-2 cells, read-out: Selectivity Index

CCCCCCCOc1ccc(-c2nc(C)c(-c3ccnc(NC(=N)N4CCN(C)CC4)n3)s2)cc1
MIC [1]: 0.78 µg/mL (≈ 1.54 µM)
MIC [2]: 8 µg/mL (≈ 15.8 µM)
MBC [3]: 8 µg/mL (≈ 15.8 µM)
MIC [4]: 8 µg/mL (≈ 15.8 µM)
MBC [5]: 8 µg/mL (≈ 15.8 µM)
MBC [6]: 8 µg/mL (≈ 15.8 µM)
MBC [7]: 8 µg/mL (≈ 15.8 µM)
MIC [8]: 8 µg/mL (≈ 15.8 µM)
MBC [9]: 8 µg/mL (≈ 15.8 µM)
MIC [10]: 8 µg/mL (≈ 15.8 µM)
MBC [11]: 8 µg/mL (≈ 15.8 µM)
MIC [12]: 8 µg/mL (≈ 15.8 µM)
MBC [13]: 8 µg/mL (≈ 15.8 µM)
MIC [14]: 8 µg/mL (≈ 15.8 µM)
MBC [15]: 8 µg/mL (≈ 15.8 µM)
MIC [16]: 8 µg/mL (≈ 15.8 µM)
MBC [17]: 8 µg/mL (≈ 15.8 µM)
MIC [18]: 8 µg/mL (≈ 15.8 µM)
MBC [19]: 16 µg/mL (≈ 31.5 µM)
MIC [20]: 8 µg/mL (≈ 15.8 µM)
MBC [21]: 8 µg/mL (≈ 15.8 µM)
MIC [22]: 4 µg/mL (≈ 7.88 µM)
MBC [23]: 8 µg/mL (≈ 15.8 µM)
MIC [24]: 16 µg/mL (≈ 31.5 µM)
MBC [25]: 16 µg/mL (≈ 31.5 µM)
MIC [26]: 16 µg/mL (≈ 31.5 µM)
MBC [27]: 16 µg/mL (≈ 31.5 µM)
Ratio [28]: 1
Ratio [29]: 1
Activity [30]: 100%
Activity [31]: 100%
Ratio [32]: 1
Activity [33]: Non-Toxic
selectivity ratio [34]: 7 to 82
selectivity ratio [35]: 7 to 82
selectivity ratio [36]: 7 to 82
selectivity ratio [37]: 7 to 82
selectivity ratio [38]: 7 to 82
selectivity ratio [39]: 7 to 82
